Common to all, as to format: functional, cell-based
The subject of assay [1] is HL-60. Kind of assay: Antiproliferative activity against HL60 after 24 hrs. Conditions: Homo sapiens, HL-60, 24 h.
Assay [2] deals with HL-60. Kind of assay: Apoptotic activity in HL60 cells after 24 hrs. Conditions: Homo sapiens, HL-60, 24 h.
For assay [3], the system named is PMN. Kind of assay: Cytotoxicity against human PMN cells at 100 uM.

Calls of active or inactive are those of the source. The rule behind the calls is not given here.

In general, IC50 refers to the midpoint of a concentration-inhibition curve. Broadly, the AC50 is the concentration giving half of the maximal activity seen. Higher therefore signals weaker potency. `COc1ccc(-c2cc(=O)c3c(OC)c(OC)c(OC)c(OC)c3o2)cc1` [TANGERETIN] registered a 50% inhibitory concentration (IC50) in assay [1] of over 100 µM. The half-maximal activity concentration (AC50) in assay [2] is over 100 µM. Moreover, the result in assay [3] was inactive.
For `COc1ccc(-c2oc3cc(OC)c(OC)c(OC)c3c(=O)c2OC)cc1OC` [HEXAMETHOXYFLAVONE], in assay [1], the IC50 came to 20.6 µM. The compound also came in with a concentration at half-maximal activity (AC50) in assay [2] of 92.1 µM. Besides, the outcome in assay [3] was inactive.
In the same order, the values of `COc1ccc(-c2oc3c(OC)c(OC)c(OC)c(OC)c3c(=O)c2O)cc1OC` [NATSUDAIDAI] are over 100 µM, 56.5 µM and “inactive”.
In the same order, the values of `COc1ccc(-c2cc(=O)c3c(OC)c(OC)c(OC)cc3o2)cc1OC` [SINENSETIN] are over 100 µM, over 100 µM and “inactive”.
In the same order, the values of `COc1cc(-c2cc(=O)c3c(OC)c(OC)c(OC)c(OC)c3o2)ccc1O` are 47.4 µM, 87.1 µM and “inactive”.
On to `COc1ccc(-c2cc(=O)c3c(O)c(OC)c(OC)c(OC)c3o2)cc1` [GARDENIN B], for which the half-inhibitory concentration (IC50) in assay [1] is over 100 µM. In addition, the concentration at half-maximal activity (AC50) in assay [2] is over 100 µM. In assay [3], the result was inactive.
`COc1cc(-c2cc(=O)c3c(O)c(OC)c(OC)c(OC)c3o2)cc(OC)c1OC` [GARDENIN]: the IC50 in assay [1] is over 100 µM. Moreover, in assay [2], the AC50 was over 100 µM. Also, the outcome in assay [3] was inactive.
In assay [1], `COc1ccc(-c2cc(=O)c3c(O)c(OC)c(OC)c(OC)c3o2)cc1OC` [5-DEMETHYLNOBILETIN] yielded an IC50 of 2.07 µM. Also, in assay [2], the half-maximal activity concentration (AC50) is 5.87 µM. In addition, the outcome in assay [3] was inactive.
The matching figures for `COc1ccc(-c2oc3cc(OC)c(OC)c(O)c3c(=O)c2OC)cc1OC` [ARTEMETIN]: 6.44 µM, 7.26 µM and “inactive”.
For the compound `COc1ccc(-c2oc3c(OC)c(OC)c(OC)c(OC)c3c(=O)c2OC)cc1OC` [3,5,6,7,8,3',4'-HEPTAMETHOXYFLAVONE], 13.3 µM corresponded to half-maximal inhibition in assay [1] (IC50). The compound further displayed an AC50 in assay [2] of 33.9 µM. The result in assay [3] was inactive.
Take `COc1ccc(-c2cc(=O)c3c(O)c(OC)c(OC)cc3o2)cc1OC`: the IC50 in assay [1] was over 100 µM. In addition, the AC50 in assay [2] was over 100 µM. The result in assay [3] was inactive.
In assay [1], `COc1ccc(-c2oc3c(OC)c(OC)c(OC)c(O)c3c(=O)c2OC)cc1OC` gave an IC50 of 4.16 µM. Moreover, the AC50 in assay [2] amounted to 5.9 µM. Further, in assay [3], the outcome was inactive.
Compound `COc1ccc(-c2cc(=O)c3c(OC)c(OC)c(OC)c(OC)c3o2)cc1O` gave a 50% inhibitory concentration (IC50) in assay [1] of 52.7 µM. The compound further showed a half-maximal activity concentration (AC50) in assay [2] of 94.6 µM. In addition, in assay [3], the result was inactive.
As for `COc1c(OC)c(OC)c2c(=O)cc(-c3ccc(O)c(O)c3)oc2c1OC`, the half-inhibitory concentration (IC50) in assay [1] came out at 71.2 µM. This compound gave a half-maximal activity concentration (AC50) in assay [2] of over 100 µM. Besides, the result in assay [3] was inactive.
In the same order, the values of `COc1ccc(-c2cc(=O)c3c(OC)c(OC)c(OC)c(OC)c3o2)cc1OC` [NOBILETIN] are 41.5 µM, over 100 µM and “inactive”.
